Experimental data published in patent US8772500B2, “TRPV3 modulators” (AbbVie Inc., priority 2011, dated 2014).

Legend:
[1] = In vitro human microsomal stability assay; assay type: in vitro ADME
How it was run: (§1)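 Compounds were incubated at 37 °C with Sprague-Dawley rat liver microsomes (rat assay) or human liver microsomes (human assay) to measure metabolic stability. NADPH was added, including to the time-zero samples.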

human TRPV3 = biological target: T1, human TRPV3 (Homo sapiens, UniProt Q8NET8); assay: In vitro antagonism of recombinant human TRPV3 activation (FLIPR Tetra calcium assay, 2-APB as agonist); assay type: cell-based; conditions: HEK293 cells stably expressing human TRPV3; 2-APB 80 μM; range class; read-out: IC50 (reported range)
T1 construct: expressed in transfected cells
T1 sequence (Q8NET8 1-790): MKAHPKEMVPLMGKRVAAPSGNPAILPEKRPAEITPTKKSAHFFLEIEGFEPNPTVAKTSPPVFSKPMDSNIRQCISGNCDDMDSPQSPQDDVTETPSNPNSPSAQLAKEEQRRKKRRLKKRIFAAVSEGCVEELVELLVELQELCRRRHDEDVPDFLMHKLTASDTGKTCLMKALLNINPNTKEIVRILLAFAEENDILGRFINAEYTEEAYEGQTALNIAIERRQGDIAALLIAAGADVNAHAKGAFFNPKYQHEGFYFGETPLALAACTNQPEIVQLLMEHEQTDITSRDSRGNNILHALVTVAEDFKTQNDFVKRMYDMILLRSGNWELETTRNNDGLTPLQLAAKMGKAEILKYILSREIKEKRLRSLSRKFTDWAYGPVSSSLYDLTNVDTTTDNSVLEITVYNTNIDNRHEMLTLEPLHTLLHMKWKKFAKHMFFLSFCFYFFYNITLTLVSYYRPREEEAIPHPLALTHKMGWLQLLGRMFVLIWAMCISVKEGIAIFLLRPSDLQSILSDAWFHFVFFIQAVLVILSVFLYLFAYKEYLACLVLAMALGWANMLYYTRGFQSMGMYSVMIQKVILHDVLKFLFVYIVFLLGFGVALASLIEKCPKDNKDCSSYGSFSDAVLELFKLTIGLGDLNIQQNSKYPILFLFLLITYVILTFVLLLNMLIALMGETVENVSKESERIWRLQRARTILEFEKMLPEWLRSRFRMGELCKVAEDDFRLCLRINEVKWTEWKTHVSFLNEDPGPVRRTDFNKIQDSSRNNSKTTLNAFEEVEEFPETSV
How it was run: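 Readout is FLIPR fluorescence, max minus min as percent of uninhibited 2-APB response, giving IC50 (usually mean of ≥2 runs). Stable human TRPV3 HEK293 cells, Calcium-4 dye-loaded, got test compound then, three minutes later, 80 μM 2-APB (EC80); run length 10 min.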

[2] = In vitro rat microsomal stability assay; assay type: in vitro ADME, rat (Sprague-Dawley)
How it was run: as §1

[3] = Sprague-Dawley, rat, 0.5 h, 0.5 μM, pH 7.4
[4] = 0.5 μM substrate, 0.25 mg/mL microsomal protein, pH 7.4, 37° C., NADPH, 30 minutes

Row | SMILES | HUMAN MICROSOMAL STABILITY (% REMAINING AFTER 30 MINUTES) ([1]; human, 0.5 h, 0.5 μM, pH 7.4) [%] | IC50 (human TRPV3) [nM] | RAT MICROSOMAL STABILITY (% REMAINING AFTER 30 MINUTES) [2, 3] [%] | HUMAN MICROSOMAL STABILITY (% REMAINING AFTER 30 MINUTES) [1, 4] [%] | RAT MICROSOMAL STABILITY (% REMAINING AFTER 30 MINUTES) [2, 4] [%]
1 | OC(c1ccccn1)C1(c2cccc(Cl)c2)CCCO1 (stereo not drawn) [Example 104, (anti)-[2-(3-chlorophenyl)tetrahydrofuran-2-yl](pyridin-2-yl)methanol] | 15 | 50 to 500 | 0.42 |  | 
2 | OC(c1ccccn1)C1(c2cccc(Cl)c2)CCCO1 (stereo not drawn) [Example 105, (syn)-[2-(3-chlorophenyl)tetrahydrofuran-2-yl](pyridin-2-yl)methanol] | 42 | 5100 to 20000 | 0.040 |  | 
3 | OC(c1ccccn1)C1(c2ccc(F)c(F)c2)CCCO1 (stereo not drawn) [Example 108, (anti)-[2-(3,4-difluorophenyl)tetrahydrofuran-2-yl](pyridin-2-yl)methanol] | 13 | 501 to 1000 | 4.9 |  | 
4 | OC(c1ccccn1)C1(c2ccc(F)c(F)c2)CCCO1 (stereo not drawn) [Example 109, (syn)-[2-(3,4-difluorophenyl)tetrahydrofuran-2-yl](pyridin-2-yl)methanol] | 45 | 5100 to 20000 | 0.74 |  | 
5 | Cl.O[C@H](c1ccccn1)C1(c2ccc(Cl)c(Cl)c2)CC(F)(F)C1 [Example 111, (S)-[1-(3,4-dichlorophenyl)-3,3-difluorocyclobutyl](pyridin-2-yl)methanol hydrochloride] |  | 50 to 500 |  | 52 | 23

Second part, led by results:

Row | HUMAN MICROSOMAL STABILITY (% REMAINING AFTER 30 MINUTES) ([1]; human, 0.5 h, 0.5 μM, pH 7.4) [%] | IC50 (human TRPV3) [nM] | RAT MICROSOMAL STABILITY (% REMAINING AFTER 30 MINUTES) [2, 3] [%] | SMILES | HUMAN MICROSOMAL STABILITY (% REMAINING AFTER 30 MINUTES) [1, 4] [%] | RAT MICROSOMAL STABILITY (% REMAINING AFTER 30 MINUTES) [2, 4] [%]
6 | 3.9 | 50 to 500 | 1.6 | OC(c1ccccn1)C1(c2cccc(C(F)(F)F)c2)CCCO1 (stereo not drawn) [Example 106, (anti)-pyridin-2-yl{2-[3-(trifluoromethyl)phenyl]tetrahydrofuran-2-yl}-methanol] |  | 
7 | 31 | 1100 to 5000 | 0.23 | OC(c1ccccn1)C1(c2cccc(C(F)(F)F)c2)CCCO1 (stereo not drawn) [Example 107, (syn)-pyridin-2-yl{2-[3-(trifluoromethyl)phenyl]tetrahydrofuran-2-yl}-methanol] |  | 
8 | 75 | 50 to 500 | 75 | OC(c1ccccn1)C1(c2ccc(OC(F)(F)F)cc2)CC(F)(F)C1 (stereo not drawn) [Example 112, {3,3-difluoro-1-[4-(trifluoromethoxy)phenyl]cyclobutyl}(pyridin-2-yl)-methanol] |  | 
9 | 24 | 50 to 500 | 18 | OC(c1ccccn1)C1(c2cccc(C(F)(F)F)c2)CC(F)(F)C1 (stereo not drawn) [Example 113, {3,3-difluoro-1-[3-(trifluoromethyl)phenyl]cyclobutyl}(pyridin-2-yl)-methanol] |  | 
10 | 6.9 | 50 to 500 | 11 | OC(c1ccccn1)C1(c2cccc(OC(F)(F)F)c2)CC(F)(F)C1 (stereo not drawn) [Example 114, {3,3-difluoro-1-[3-(trifluoromethoxy)phenyl]cyclobutyl}(pyridin-2-yl)-methanol] |  | 
11 | >85 | 5100 to 20000 | 81 | OC(c1ccccn1)C1(c2ccc(C(F)(F)F)cn2)CCC1 (stereo not drawn) [Example 115, pyridin-2-yl{1-[5-(trifluoromethyl)pyridin-2-yl]cyclobutyl}methanol] |  | 
